Where “and” joins values, the source holds several entries; their conditions need not be identical. Equal entries are not always repeated. Structures can show the parent of a compound that is named as a salt.
Experiments:
[1] = in vivo; cited from earlier work
β-lactamases = details: cited from earlier work
[2] = human, in vivo, po
Description: Serum concentrations and urinary excretion of mecillinam in fasting
following oral administration of
B. 128 mg of VD-1825^x hydrochloride (corresponding to 100 mg of
pivmecillinam hydrochloride) in aqueous solution

[3] = Urinary excretion in 0 to 6 hours of penicillanic acid 1,1-dioxide in fasting volunteers following oral administration; type: in vivo, human
Description: Urinary excretion in 0 to 6 hours of penicillanic
acid 1,1-dioxide in fasting volunteers following
A. 60 mg of potassium penicillanate 1,1-dioxide
(corresponding to 52 mg of penicillanic acid
1,1-dioxide) in aqueous solution
B. 128 mg of VD-1825 hydrochloride (corresponding
to 49.0 mg of penicillanic acid 1,1-dioxide) in […]

SMILES: CC(C)(C)C(=O)OCOC(=O)[C@@H]1N2C(=O)C[C@H]2S(=O)(=O)C1(C)C
- Absorption from the gastro-intestinal tract on oral administration [1]: absorbed much more slowly

SMILES: CC1(C)[C@H](C(=O)O)N2C(=O)[C@H](Cl)[C@H]2S1(=O)=O [6α-chloropenicillanic acid 1,1-dioxide]
- β-lactamase inhibition (β-lactamases): powerful inhibitors of a wide range of β-lactamases

SMILES: CC1(C)S[C@@H]2[C@H](N=CN3CCCCCC3)C(=O)N2[C@H]1C(=O)OCOC(=O)[C@@H]1N2C(=O)C[C@H]2S(=O)(=O)C1(C)C [VD-1825, 1,1-Dioxopenicillanoyloxymethyl 6-[(hexahydro-1H-azepin-1-yl)-methyleneamino]penicillanate hydrochloride]
- Urinary recovery of mecillinam compared with pivmecillinam [2]: comparable to that following administration of pivmecillinam
- Absorption concluded from urinary recovery of penicillanic acid 1,1-dioxide ([3]; human, in vivo, po): efficient absorption

SMILES: O=C(O)[C@H]1/C(=C/CO)O[C@@H]2CC(=O)N21 [clavulanic acid]
- β-lactamase inhibition (β-lactamases): β-lactamase inhibitors

SMILES: CC1(C)S[C@@H]2[C@H](N=CN3CCCCCC3)C(=O)N2[C@H]1C(=O)O [mecillinam, 6-[(hexahydro-1H-azepin-1-yl)-methyleneamino]penicillanic acid]
- Absorption from the gastro-intestinal tract on oral administration [1]: incompletely absorbed, when given orally

SMILES: COc1cccc(OC)c1C(=O)N[C@@H]1C(=O)N2[C@@H](C(=O)O)C(C)(C)S(=O)(=O)[C@H]12 [methicillin sulphone, 1,1-dioxo-6β-(2,6-dimethoxybenzamido)penicillanic acid]
- β-lactamase inhibition (β-lactamases): powerful inhibitors of a wide range of β-lactamases

SMILES: CC1(C)[C@H](C(=O)O)N2C(=O)C[C@H]2S1(=O)=O [penicillanic acid 1,1-dioxide]
- Absorption from the gastro-intestinal tract, cf. Table II ([3]; oral): absorbed poorly or irregularly from the gastro-intestinal tract
- β-lactamase inhibition (β-lactamases): powerful inhibitors of a wide range of β-lactamases

SMILES: CC1(C)[C@H](C(=O)[O-])N2C(=O)C[C@H]2S1(=O)=O.[K+] [potassium penicillanate 1,1-dioxide]
- Urinary excretion of penicillanic acid 1,1-dioxide ([3]; 0 to 6 hours, individual subject, 60 mg potassium penicillanate 1,1-dioxide oral, aqueous solution, fasting, 360 min): 2.4 % of dose and 3.2 % of dose and 7.7 % of dose and 5.2 % of dose and 2.9 % of dose
- Urinary excretion of penicillanic acid 1,1-dioxide, mean ([3]; 0 to 6 hours, mean, 60 mg potassium penicillanate 1,1-dioxide oral, aqueous solution, fasting): 4.3 % of dose
- dose excreted at 6 h ([3]; human, in vivo, po, 60 mg, 0 to 6 hours, mean, 60 mg potassium penicillanate 1,1-dioxide oral, aqueous solution, fasting): 4.3%

SMILES: CC1(C)[C@H](C(=O)O)N2C(=O)[C@@H](NC(=O)c3nc4ccccc4nc3C(=O)O)[C@H]2S1(=O)=O [quinacillin sulphone]
- β-lactamase inhibition (β-lactamases): powerful inhibitors of a wide range of β-lactamases

From US4325960A, “6-Amidinopenicillanic acid derivatives including the radical of a β-lactamase inhibitor” (Leo Pharmaceutical Products Ltd. A/S (Lovens Kemiske Fabrik, priority 1979, dated 1982)
